16 molecules from patent publication US20040110745A1, “Therapeutic chroman compounds” (priority 2001, published 2004) can be followed below.

Molecules are shown by their SMILES.

System in one series: not given
Assay: not given
Conditions: not given
`CN1CCN(c2cccc3c2OC(C(=O)Nc2ccc(N4CCOCC4)cc2)CC3=O)CC1` (racemic) [Example 78, racemic-8-(4-methyl-piperazin-1-yl)-4-oxo-chroman-2-carboxylic acid (4-morpholin-4-yl-phenyl)-amide] returned a melting point of 215 to 216 °C.

Turning to `CN1CCN(c2cccc3c2OC(C(=O)Nc2ccc(N4CCOCC4)cc2)CC3)CC1` (single isomer, unassigned; (+)) [Example 76, (+)-8-(4Methyl-piperazin-1-yl)-chroman-2-carboxylic acid (4-morpholin-4-yl-phenyl)-amide], the melting point lay in the range of 206 to 207 °C. `CN1CCN(c2cccc3c2OC(C(=O)Nc2ccc(N4CCOCC4)cc2)CC3)CC1` (single isomer, unassigned; (-)) [Example 77, (−)-8-(4-Methyl-piperazin-1-yl)-chroman-2-carboxylic acid (4-morpholin-4-yl-phenyl)-amide] registered a melting point of 205.5 to 207 °C. On the same count and under the same terms, the result for `CN1CCN(c2cccc3c2OC(C(=O)Nc2ccc(N4CCOCC4)cc2)CC3=O)CC1` (single isomer, unassigned) [Example 80, 8-(4-Methyl-piperazin-1-yl)-4-oxo-chroman-2-carboxylic acid (4-morpholin-4-yl-phenyl)-amide] reads 215 °C (dec.); that for `CN1CCN(c2cccc3c(=O)cc(C(=O)N(C)c4ccc(N5CCOCC5)cc4)oc23)CC1` [Example 25, 8-(4-Methylpiperazin-1-yl)-4-oxo-4H-chromene-2-carboxylic acid methyl-(4-morpholin-4-yl-phenyl)amide], 245 to 246.8 °C. Consider `CN1CCN(c2cccc3c2OC(C(=O)Nc2ccc(N4CCOCC4)cc2)CC3=O)CC1` (single isomer, unassigned) [Example 79, 8-(4-Methyl-piperazin-1-yl)-4-oxo-chroman-2-carboxylic acid (4-morpholin-4-yl-phenyl)-amide], for which the melting point is 216 °C (dec.). `CN1CCN(c2cccc3c2OC(C(=O)Nc2ccc(N4CCOCC4)cc2)CC3)CC1` (racemic) [Example 75, racemic-8-(4-Methyl-piperazin-1-yl)-chroman-2-carboxylic acid (4-morpholin-4-yl-phenyl)-amide] gave a melting point of 215 to 216 °C. For the molecule `CN1CCN(c2cccc3c(=O)cc(C(=O)Nc4ccc(N5CCOCC5)cc4)oc23)CC1` [Example 1, 8-(4-methyl-1-piperazinyl)-N-[4-(4-morpholinyl)phenyl]-4-Oxo-4H-chromene-2-carboxamide], the melting point is 217 to 218 °C (dec.). The molecule `CCS(=O)(=O)N1CCN(c2ccc(NC(=O)c3cc(=O)c4cc(F)cc(N5CCN(C)CC5)c4o3)cc2)CC1` [Example 71, 6-Fluoro-8-(4-methyl-piperazin-1-yl)-4-oxo-4H-chromene-2-carboxylic acid [4-(4-ethane sulfonyl-piperazin-1-yl)-phenyl]-amide] showed a melting point of 233 to 234 °C.

Regarding `COc1cc(N2CCN(C)CC2)c2oc(C(=O)Nc3ccc(N4CCN(C(=O)CCO)CC4)cc3)cc(=O)c2c1` [Example 68, 6-Methoxy-8-(4-methyl-piperazin-1-yl)-4-oxo-4H-chromene-2-carboxylic acid {4-[4-(3-hydroxy-propanoyl)-piperazin-1-yl]-phenyl}-amide], the melting point is 195 to 197 °C. Consider `CCNC(=O)N1CCN(c2ccc(NC(=O)c3cc(=O)c4cc(F)cc(N5CCN(C)CC5)c4o3)cc2)CC1` [Example 81, 4-[4-({1-[6-Fluoro-8-(4-methyl-piperazin-1-yl)-4-oxo-4H-chromen-2-yl]-methanoyl}-amino)-phenyl]-piperazine-1-carboxylic acid Ethylamide], for which the melting point lay within 236 to 238 °C.

The molecule `CN1CCN(c2cccc3c(=O)cc(C(=O)Nc4ccc(N5CCOCC5)cc4O)oc23)CC1` [Example 22, 8-(4-Methyl-piperazin-1-yl)-4-oxo-4H-chromene-2-carboxylic acid (2-hydroxy-4-morpholin-4-yl-phenyl)-amide] had a melting point of 248.4 to 249.6 °C.

`COc1cc(N2CCN(C)CC2)c2oc(C(=O)Nc3ccc(N4CCOCC4)cc3)cc(=O)c2c1` [Example 31, 6-Methoxy-8-(4-methyl-piperazin-1-yl)-4-oxo-4H-chromene-2-carboxylic acid (4-morpholin-4-yl-phenyl)-amide] showed a melting point of 234 to 236 °C. Molecule `CN1CCN(c2cc(F)cc3c(=O)cc(C(=O)Nc4ccc(N5CCN(C(=O)CCO)CC5)cc4)oc23)CC1` [Example 73, 6-Fluoro-8-(4-methyl-piperazin-1-yl)-4-oxo-4H-chromene-2-carboxylic acid {4-[4-(3-hydroxy-propanoyl)-piperazin-1-yl]-phenyl}-amide] had a melting point of 195 to 199 °C.

A further series deals with guinea pigs. The experiment in a line: learned helplessness assay for antidepressant/antianxiety activity. Format: in vivo. The settings on record: guinea pig. From the text: The utility of the compounds for example to treat depression may be shown via a learned helplessness test in guinea pigs, which is used extensively as correlative to antidepressant activity in humans. The learned helplessness test may be carried out as follows: Seventy male Hartley guinea pigs, each weighing about 350-425 gm are fed ad lib, and are housed under a 12-hour light/dark cycle. The procedure consists of two phases: The induction phase and the avoidance training phase. In the induction phase, subjects are placed into standard shuttle cages (20 L×16 W×21 centimeters H) which are fitted with a grid floor. Electrical stimulation (1.25 mA, 10 sec duration) is delivered to the floor of the cage every 90-sec during 1 hour daily sessions. Subjects have no opportunity to escape or to avoid shocks. Induction is conducted for 2 consecutive days.
In avoidance training, testing is also conducted in the shuttle cages, except that the subjects are not returned to the same chamber in which induction had occurred. Additionally, all cages are fitted with a partition with an arch in the center of the cage, through which animals can pass between the left and right halves of the cage. The procedure employed is a standard shuttle avoidance procedure in which a compound, conditioned stimulus (a 10-sec presentation of a tone and turning on of a lamp on the side of the cage that the guinea pig was occupying) serves to indicate presentation of electrical current to the floor of the cage. Shock is presented for a 5 sec period, 5 sec after initiation of the conditioned stimulus. Entry into the opposite side of the shuttle cage via the arched partition prior to shock onset results in the end of the trial (avoidance response). If shock is delivered, entry into the opposite side of the cage results in termination of the shock and CS (escape). Reversal of learned helplessness in the induction subjects correlates to antidepressant activity of the test compound.
Avoidance training, 45-min in duration, is conducted on 2 consecutive days, beginning 48 hr after the final induction session. Seventy subjects are assigned to 1 of 6 groups of 11-12 animals. The groups are as follows:
Groups 2-6 are given induction and avoidance training sessions. Injections are administered immediately following induction sessions and 1 hour prior to avoidance training sessions. A second injection is administered 7-8 hours following the first injection, for a total of 9 injections administered over 5 days. No injections are administered following the final avoidance training session.
Compounds of the present invention may be administered in a volume of 1 mL/kg bwt. Imipramine is dissolved in DI water. The compounds are dissolved in DI water, to which was added a few drops of lactic acid (pH 5.5). […]
Consider `CCC(=O)N1CCN(c2ccc(NC(=O)c3cc(=O)c4cc(OC)cc(N5CCN(C)CC5)c4o3)cc2)CC1` [Example 44, 6-Methoxy-8-(4-methyl-piperazin-1-yl)-4-oxo-4H-chromene-2-carboxylic acid [4-(4-propionyl-piperazin-1-yl)-phenyl]-amide], for which the “activity in the learned helplessness assay” value (shortened to “activity”) is “demonstrate activity”.

Take `CCS(=O)(=O)N1CCN(c2ccc(NC(=O)c3cc(=O)c4cc(F)cc(N5CCN(C)CC5)c4o3)cc2)CC1` [Example 71, 6-Fluoro-8-(4-methyl-piperazin-1-yl)-4-oxo-4H-chromene-2-carboxylic acid [4-(4-ethane sulfonyl-piperazin-1-yl)-phenyl]-amide]: the “activity” value is “demonstrate activity”. `COc1cc(N2CCN(C)CC2)c2oc(C(=O)Nc3ccc(N4CCOCC4)cc3)cc(=O)c2c1` [Example 31, 6-Methoxy-8-(4-methyl-piperazin-1-yl)-4-oxo-4H-chromene-2-carboxylic acid (4-morpholin-4-yl-phenyl)-amide]: the “activity” value is “demonstrate activity”.

Turning to `CCC(=O)N1CCN(c2ccc(NC(=O)c3cc(=O)c4cc(F)cc(N5CCN(C)CC5)c4o3)cc2)CC1` [Example 72, 6-flouro-8-(4-methyl-piperazin-1-yl)-4-oxo-4H-chromene-2-carboxylic acid [4-(4-propionyl-piperazin-1-yl)-phenyl]-amide], the “activity” value is “demonstrate activity”.

The term melting point denotes the temperature, or range, at which the solid turns liquid.
